Reference: patent US11986532B2 (Arvinas Operations, Inc., priority 2021, dated 2024)
Where two headings read alike, the source gives them in different places.

Molecular target: T1, BCL6 (Homo sapiens, UniProt P41182)
T1 construct: endogenous in cells; host or cells: T47D breast cancer epithelial cells
Assay: Immunofluorescence protocol for high content imaging of BCL6 (degradation) in T47D cells, 3 days compound treatment
Assay type: cell-based
Settings: for DC50: read-out: Mean DC50 (nM)* category; for Dmax: read-out: Mean Dmax (%)** category
How it was run: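 T47D, RPMI1640/10% FBS; cpd 11-pt 3-fold, top 0.1 or 1 μM final; 3 d, 37° C. Fix 4% PFA, perm 0.1% Triton, block 3% BSA; anti-BCL6 1:300 o/n 4° C; Alexa-488 2°, CellMask-647, Hoechst. Imaged 10×, 4 fields/well.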

[1] = T47D cells, 3 days compound treatment

| SMILES | DC50 [1] [nM] | Dmax [1] [%] | Dmax (T47D) [%] | DC50 [nM] |
| --- | --- | --- | --- | --- |
| CNC(=O)COc1cc2cc(Nc3nc(N4CCC(F)(CN5CCC6(CC5)CN(c5ccc7c(c5)CN(C5CCC(=O)NC5=O)C7=O)C6)CC4)ncc3Cl)ccc2n(C(C)C)c1=O (stereo not shown) [Compound 51, 2-{[6-({5-chloro-2-[4-({2-[2-(2,6-dioxopiperidin-3-yl)-1-oxo-2,3-dihydro-1H-isoindol-5-yl]-2,7-diazaspiro[3.5]nonan-7-yl}methyl)-4-fluoropiperidin-1-yl]pyrimidin-4-yl}amino)-2-oxo-1-(propan-2-yl)-1,2-dihydroquinolin-3-yl]oxy}-N-methylacetamide] | < 10 | 50 to 70 | – | – |
| CC[C@@H]1CN([C@H]2C[C@H](OC3CCN(c4ncc(Cl)c(Nc5ccc6c(c5)cc(OCC(=O)NC)c(=O)n6C(C)C)n4)CC3)C2)CCN1c1ccc2c(c1C)C(=O)N(C1CCC(=O)NC1=O)C2=O (stereo partly drawn) [Compound 287, 2-({6-[(5-chloro-2-{4-[(1r,3r)-3-[(3R)-4-[2-(2,6-dioxopiperidin-3-yl)-4-methyl-1,3-dioxo-2,3-dihydro-1H-isoindol-5-yl]-3-ethylpiperazin-1-yl]cyclobutoxy]piperidin-1-yl}pyrimidin-4-yl)amino]-2-oxo-1-(propan-2-yl)-1,2-dihydroquinolin-3-yl}oxy)-N-methylacetamide] | – | – | ≥ 70 | < 10 |
| CNC(=O)COc1cc2cc(Nc3nc(N4CCC[C@H](COc5cccc6c5C(=O)N(C5CCC(=O)NC5=O)C6=O)C4)ncc3Cl)ccc2n(CCN(C)C)c1=O (stereo partly drawn) [Compound 141, 2-{[6-({5-chloro-2-[(3S)-3-({[2-(2,6-dioxopiperidin-3-yl)-1,3-dioxo-2,3-dihydro-1H-isoindol-4-yl]oxy}methyl)piperidin-1-yl]pyrimidin-4-yl}amino)-1-[2-(dimethylamino)ethyl]-2-oxo-1,2-dihydroquinolin-3-yl]oxy}-N-methylacetamide] | ≥ 100 | – | – | – |
| CNC(=O)COc1cc2cc(Nc3nc(N4CCC(O[C@H]5C[C@H](N6CCN(c7ccc8c(c7C)C(=O)N(C7CCC(=O)NC7=O)C8=O)C[C@@H]6C)C5)CC4)ncc3Cl)ccc2n(C(C)C)c1=O (stereo partly drawn) [Compound 194, 2-({6-[(5-chloro-2-{4-[(1r,3r)-3-[(2S)-4-[2-(2,6-dioxopiperidin-3-yl)-4-methyl-1,3-dioxo-2,3-dihydro-1H-isoindol-5-yl]-2-methylpiperazin-1-yl]cyclobutoxy]piperidin-1-yl}pyrimidin-4-yl)amino]-2-oxo-1-(propan-2-yl)-1,2-dihydroquinolin-3-yl}oxy)-N-methylacetamide] | < 10 | ≥ 70 | – | – |
| CNC(=O)COc1cc2cc(Nc3nc(N4CCC(CN5CC6(CCN(c7cccc8c7CN(C7CCC(=O)NC7=O)C8=O)CC6(F)F)C5)CC4)ncc3Cl)ccc2n(C(C)C)c1=O (stereo not shown) [Compound 125, 2-{[6-({5-chloro-2-[4-({7-[2-(2,6-dioxopiperidin-3-yl)-1-oxo-2,3-dihydro-1H-isoindol-4-yl]-5,5-difluoro-2,7-diazaspiro[3.5]nonan-2-yl}methyl)piperidin-1-yl]pyrimidin-4-yl}amino)-2-oxo-1-(propan-2-yl)-1,2-dihydroquinolin-3-yl]oxy}-N-methylacetamide] | < 10 | 50 to 70 | – | – |
| CNC(=O)COc1cc2cc(Nc3nc(N4CCC(CN5CC(N6CCC(c7ccc8c(c7)C(=O)N(C7CCC(=O)NC7=O)C8=O)C(F)C6)C5)CC4)ncc3Cl)ccc2n(C(C)C)c1=O (stereo not shown) [Compound 213, 2-({6-[(5-chloro-2-{4-[(3-{4-[2-(2,6-dioxopiperidin-3-yl)-1,3-dioxo-2,3-dihydro-1H-isoindol-5-yl]-3-fluoropiperidin-1-yl}azetidin-1-yl)methyl]piperidin-1-yl}pyrimidin-4-yl)amino]-2-oxo-1-(propan-2-yl)-1,2-dihydroquinolin-3-yl}oxy)-N-methylacetamide] | – | – | 50 to 70 | 10 to 50 |
| CNC(=O)COc1cc2cc(Nc3nc(N4CCC(O[C@H]5C[C@H](N6CC7(CN(c8ccc9c(c8)CN(C8CCC(=O)NC8=O)C9=O)C7)C6)C5)CC4)ncc3Cl)ccc2n(C(C)C)c1=O (stereo partly shown) [Compound 353, 2-({6-[(5-chloro-2-{4-[(1r,3r)-3-{6-[2-(2,6-dioxopiperidin-3-yl)-1-oxo-2,3-dihydro-1H-isoindol-5-yl]-2,6-diazaspiro [3.3]heptan-2-yl}cyclobutoxy]piperidin-1-yl}pyrimidin-4-yl)amino]-2-oxo-1-(propan-2-yl)-1,2-dihydroquinolin-3-yl}oxy)-N-methylacetamide] | – | – | ≥ 70 | < 10 |
| CNC(=O)COc1cc2cc(Nc3nc(N4CCC(O[C@H]5CC[C@@H](N6CCC(c7ccc8c(c7)C(=O)N(C7CCC(=O)NC7=O)C8=O)CC6)CC5)CC4)ncc3Cl)ccc2n(C(C)C)c1=O (stereo partly shown) [Compound 110, 2-[(6-{[5-chloro-2-(4-{[(1s,4s)-4-{4-[2-(2,6-dioxopiperidin-3-yl)-1,3-dioxo-2,3-dihydro-1H-isoindol-5-yl]piperidin-1-yl}cyclohexyl]oxy}piperidin-1-yl)pyrimidin-4-yl]amino}-2-oxo-1-(propan-2-yl)-1,2-dihydroquinolin-3-yl)oxy]-N-methylacetamide] | ≥ 100 | ≥ 70 | – | – |
| CNC(=O)COc1cc2cc(Nc3nc(N4CCC5(CCN(CC6(F)CCN(c7cccc8c7C(=O)N(C7CCC(=O)NC7=O)C8=O)CC6)CC5)CC4)ncc3Cl)ccc2n(C(C)C)c1=O (stereo not shown) [Compound 63, 2-{[6-({5-chloro-2-[9-({1-[2-(2,6-dioxopiperidin-3-yl)-1,3-dioxo-2,3-dihydro-1H-isoindol-4-yl]-4-fluoropiperidin-4-yl}methyl)-3,9-diazaspiro[5.5]undecan-3-yl]pyrimidin-4-yl}amino)-2-oxo-1-(propan-2-yl)-1,2-dihydroquinolin-3-yl]oxy}-N-methylacetamide] | 10 to 50 | 50 to 70 | – | – |
| CNC(=O)COc1cc2cc(Nc3nc(N4CCC(O[C@H]5CC[C@H](N6CCC(c7ccc8c(c7)C(=O)N(C7CCC(=O)NC7=O)C8=O)CC6)CC5)CC4)ncc3Cl)ccc2n(C(C)C)c1=O (stereo partly shown) [Compound 117, 2-[(6-{[5-chloro-2-(4-{[(1r,4r)-4-{4-[2-(2,6-dioxopiperidin-3-yl)-1,3-dioxo-2,3-dihydro-1H-isoindol-5-yl]piperidin-1-yl}cyclohexyl]oxy}piperidin-1-yl)pyrimidin-4-yl]amino}-2-oxo-1-(propan-2-yl)-1,2-dihydroquinolin-3-yl)oxy]-N-methylacetamide] | < 10 | 50 to 70 | – | – |
| CNC(=O)COc1cc2cc(Nc3nc(N4CCN(CC5CCN(c6ccc7c(c6F)CN(C6CCC(=O)NC6=O)C7=O)CC5)CC4)ncc3Cl)ccc2n(C(C)C)c1=O (stereo not shown) [Compound 25, 2-{[6-({5-chloro-2-[4-({1-[2-(2,6-dioxopiperidin-3-yl)-4-fluoro-1-oxo-2,3-dihydro-1H-isoindol-5-yl]piperidin-4-yl}methyl)piperazin-1-yl]pyrimidin-4-yl}amino)-2-oxo-1-(propan-2-yl)-1,2-dihydroquinolin-3-yl]oxy}-N-methylacetamide] | < 10 | < 50 | – | – |
| CNC(=O)COc1cc2cc(Nc3nc(N4CCN(CC5CCN(c6c(F)ccc7c6CN(C6CCC(=O)NC6=O)C7=O)CC5)CC4)ncc3Cl)ccc2n(C(C)C)c1=O (stereo not shown) [Compound 297, 2-{[6-({5-chloro-2-[4-({1-[2-(2,6-dioxopiperidin-3-yl)-5-fluoro-1-oxo-2,3-dihydro-1H-isoindol-4-yl]piperidin-4-yl}methyl)piperazin-1-yl]pyrimidin-4-yl}amino)-2-oxo-1-(propan-2-yl)-1,2-dihydroquinolin-3-yl]oxy}-N-methylacetamide] | – | – | 50 to 70 | < 10 |
| CNC(=O)COc1cc2cc(Nc3nc(N4CCC(C(C)(C)N5CCC6(CC5)CN(c5cccc7c5CN(C5CCC(=O)NC5=O)C7=O)C6)CC4)ncc3Cl)ccc2n(C(C)C)c1=O (stereo not shown) [Compound 59, 2-{[6-({5-chloro-2-[4-(2-{2-[2-(2,6-dioxopiperidin-3-yl)-1-oxo-2,3-dihydro-1H-isoindol-4-yl]-2,7-diazaspiro[3.5]nonan-7-yl}propan-2-yl)piperidin-1-yl]pyrimidin-4-yl}amino)-2-oxo-1-(propan-2-yl)-1,2-dihydroquinolin-3-yl]oxy}-N-methylacetamide] | < 10 | 50 to 70 | – | – |
| CNC(=O)COc1cc2cc(Nc3nc(N4CCC(O[C@H]5C[C@H](N6CCN(c7cc8c(cc7Cl)C(=O)N([C@H]7CCC(=O)NC7=O)C8)[C@H](C)C6)C5)CC4)ncc3Cl)ccc2n(C(C)C)c1=O [Compound 269, 2-({6-[(5-chloro-2-{4-[(1r,3r)-3-[(3R)-4-{6-chloro-2-[(3S)-2,6-dioxopiperidin-3-yl]-1-oxo-2,3-dihydro-1H-isoindol-5-yl}-3-methylpiperazin-1-yl]cyclobutoxy]piperidin-1-yl}pyrimidin-4-yl)amino]-2-oxo-1-(propan-2-yl)-1,2-dihydroquinolin-3-yl}oxy)-N-methylacetamide] | – | – | ≥ 70 | < 10 |
| CNC(=O)COc1cc2cc(Nc3nc(N4CCC(OC5CCN(c6ccc7c(c6)CN(C6CCC(=O)NC6=O)C7=O)CC5)CC4)ncc3Cl)ccc2n(C(C)C)c1=O (stereo not shown) [Compound 28, 2-{[6-({5-chloro-2-[4-({1-[2-(2,6-dioxopiperidin-3-yl)-1-oxo-2,3-dihydro-1H-isoindol-5-yl]piperidin-4-yl}oxy)piperidin-1-yl]pyrimidin-4-yl}amino)-2-oxo-1-(propan-2-yl)-1,2-dihydroquinolin-3-yl]oxy}-N-methylacetamide] | < 10 | 50 to 70 | – | – |
| CNC(=O)COc1cc2cc(Nc3nc(N4CCC(N5CCC6(CN(CC7CCN(c8ccc9c(c8)CN(C8CCC(=O)NC8=O)C9=O)CC7)C6)C5)CC4)ncc3Cl)ccc2n(C(C)C)c1=O (stereo not shown) [Compound 236, 2-({6-[(5-chloro-2-{4-[2-({1-[2-(2,6-dioxopiperidin-3-yl)-1-oxo-2,3-dihydro-1H-isoindol-5-yl]piperidin-4-yl}methyl)-2,6-diazaspiro[3.4]octan-6-yl]piperidin-1-yl}pyrimidin-4-yl)amino]-2-oxo-1-(propan-2-yl)-1,2-dihydroquinolin-3-yl}oxy)-N-methylacetamide] | – | – | 50 to 70 | < 10 |
